Assay results from patent US20130096050A1 (Longevity Biotech, Inc., priority 2010, published 2013).
“Also recorded” adds a separate entry of the source.

How the values were obtained:
[1] = tested on: calcitonin receptors; conditions: amylin receptor vs calcitonin receptors; cited from earlier work
[2] = target: CGRP receptors (Homo sapiens, UniProt O60894+Q16602); conditions: amylin receptor vs CGRP receptors; cited from earlier work
[3] = target: amylin receptor; conditions: read-out: IC50, amylin receptor antagonist; cited from earlier work
[4] = humans; cited from earlier work
[5] = target: T1, VIPR2 (VPAC2) (Homo sapiens, UniProt P41587); experiment: cAMP Hunter cell line functional assay, agonist mode (DiscoveRx HitHunter cAMP XS+); type: cell-based; conditions: FIG. 3
T1 construct: host or cells: cAMP Hunter cell line (CHO-K1 is named only in the prophetic b955)
T1 sequence (P41587 24-438): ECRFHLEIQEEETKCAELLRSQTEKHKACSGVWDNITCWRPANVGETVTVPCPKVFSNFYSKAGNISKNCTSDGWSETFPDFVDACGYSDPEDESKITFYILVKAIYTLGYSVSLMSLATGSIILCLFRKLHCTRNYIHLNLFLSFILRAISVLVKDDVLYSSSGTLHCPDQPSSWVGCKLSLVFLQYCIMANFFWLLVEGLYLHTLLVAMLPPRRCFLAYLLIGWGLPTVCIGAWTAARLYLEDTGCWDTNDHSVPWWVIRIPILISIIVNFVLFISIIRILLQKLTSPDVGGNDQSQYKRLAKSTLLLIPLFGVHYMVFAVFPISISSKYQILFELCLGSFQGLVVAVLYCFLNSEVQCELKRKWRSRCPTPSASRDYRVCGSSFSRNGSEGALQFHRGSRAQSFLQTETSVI
Method: (§1) Once it was established that the cells were healthy and growing normally, cells were passaged from flasks using cell dissociation reagent buffer and seeded into white walled clear bottom 384-well microplates for compound profiling. For profiling, cells were seeded at a density of 10,000 cells per well in a total volume of 20 μL and were allowed to adhere and recover overnight prior to compound addition. cAMP modulation was determined using the DiscoveRx HitHunter cAMP XS+ assay.
(§2) For profiling compound in agonist mode, the cells were incubated in the presence of compound at 37° C. for 30 minutes. […] After appropriate compound incubation, assay signal was generated through incubation with DiscoverX lysis cocktail according to the manufacturers standard protocol. Dose curves were plotted using GraphPad Prism or Activity Base. Percentage activity is calculated using the following formula:
(§3) % Activity=100%×(mean RLU of test sample−mean RLU of vehicle control)/(mean RLU of MAX control−mean RLU of vehicle control).

[6] = target: T2, VIPR1 (VPAC1) (Homo sapiens, UniProt P32241); experiment: as above; type: cell-based; conditions: for Mean RLU: cAMP, VIPR1 cells
T2 sequence (P32241 31-457): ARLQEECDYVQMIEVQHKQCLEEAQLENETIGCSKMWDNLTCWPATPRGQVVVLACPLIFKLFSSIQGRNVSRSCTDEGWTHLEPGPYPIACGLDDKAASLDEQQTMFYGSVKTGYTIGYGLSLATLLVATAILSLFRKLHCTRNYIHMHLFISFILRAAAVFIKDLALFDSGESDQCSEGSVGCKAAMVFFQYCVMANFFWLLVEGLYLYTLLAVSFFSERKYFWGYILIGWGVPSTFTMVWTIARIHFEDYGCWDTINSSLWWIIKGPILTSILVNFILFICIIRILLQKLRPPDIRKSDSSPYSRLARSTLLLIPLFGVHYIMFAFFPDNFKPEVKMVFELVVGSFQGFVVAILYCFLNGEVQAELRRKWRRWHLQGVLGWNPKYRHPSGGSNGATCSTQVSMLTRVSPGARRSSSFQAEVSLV
Method: as §1, §2, §3

[7] = target: neurotensin receptors; conditions: rat brain receptors; read-out: IC50, inhibition of {Trp11}-NT binding; cited from earlier work

Chain of CGRP receptors (Q16602 23-461): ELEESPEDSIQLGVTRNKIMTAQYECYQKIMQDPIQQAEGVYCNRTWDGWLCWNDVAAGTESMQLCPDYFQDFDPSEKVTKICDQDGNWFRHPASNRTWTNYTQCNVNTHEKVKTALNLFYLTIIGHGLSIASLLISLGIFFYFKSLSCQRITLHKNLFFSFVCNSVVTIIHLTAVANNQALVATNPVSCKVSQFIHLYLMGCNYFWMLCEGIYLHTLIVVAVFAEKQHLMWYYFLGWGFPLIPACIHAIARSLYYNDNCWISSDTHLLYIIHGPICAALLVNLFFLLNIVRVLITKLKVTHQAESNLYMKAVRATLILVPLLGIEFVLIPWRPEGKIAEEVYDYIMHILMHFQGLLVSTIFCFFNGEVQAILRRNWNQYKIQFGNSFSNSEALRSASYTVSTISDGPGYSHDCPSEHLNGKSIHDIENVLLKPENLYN
Chain of CGRP receptors (O60894 27-148 partner): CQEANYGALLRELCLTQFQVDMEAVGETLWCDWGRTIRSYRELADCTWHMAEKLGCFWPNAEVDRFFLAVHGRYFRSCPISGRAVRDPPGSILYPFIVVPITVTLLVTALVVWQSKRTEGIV

AC 187
selectivity over calcitonin receptors [1]: 38 fold
selectivity over CGRP receptors [2]: 400 fold
IC50 [3]: 0.48 nM

GLP-1: glucagon-like peptide-1, a product of the proglucagon gene, gut hormone (HDEFERHAEGTFTSDVSSYLEGQAAQGFIAWLVKGRG)
plasma half-life [4]: 2 min

HSDAVFTDNYXRLZKQLXVKZYLNX ILN [Compound 8]
activation of / interaction with VIPR2 (in words) [5]: not activate; also recorded: does not interact substantially
Mean RLU ([6]; 1.03E−08 M): 13700.0 RLU
Mean RLU ([6]; 1.03E−09 M): 13500.0 RLU
Mean RLU ([6]; 1.03E−10 M): 9960.0 RLU
Mean RLU ([6]; 1.03E−11 M): 10500.0 RLU
Mean RLU ([6]; 1.03E−12 M): 10340.0 RLU
Mean RLU ([6]; 5.03E−07 M): 112320.0 RLU
Mean RLU ([6]; 5.03E−08 M): 96460.0 RLU
Mean RLU ([6]; 5.03E−09 M): 13200.0 RLU
Mean RLU ([6]; 5.03E−10 M): 9520.0 RLU
activation of VIPR1 (in words) ([6]; FIG. 3): fully activate
EC50 ([6]; cAMP readout, 37° C. for 30 minutes, read-out: EC50 (peptide concentration for 50% VIPR1 activation)): 28 nM

Neuromedin N
IC50 [7]: 16.7 nM
